Reference: US20090208539A1, “STABLE ATORVASTATIN FORMULATIONS” (priority 2004, published 2009)

Test: Compatibility test of atorvastatin calcium with excipients (water added, sealed vial, 50° C., two weeks; impurities by HPLC, physical changes)
Type: physicochemical
Conditions: for Compatibility: 0.2 ml water added, sealed vial, two weeks
Protocol: In order for an excipient to be used with an embodiment of the formulation of the present invention, it was required to perform acceptably during the compatibility testing. The acceptance criteria for the compatibility test were as follows. […] Physical stability was determined by examining the mixture's appearance in terms of discoloration, liquefaction, dryness and odor or gas.
A granulate or dry mix of the drug substance and each of the excipients requested to the expected ratio in the possible final formulas was prepared. The granulate was prepared manually with a mortar and pestle. The active ingredient is mixed with the ingredient(s) to be tested, then granulated in a mortar and pestle using the aqueous granulation solution. The wet granulate was then dried in an oven at 60° C. down to LOD<5% and then milled.
The compatibility test was performed as follows. Each mixture (blend or granulate) was transferred to a vial, 0.2 ml of purified water was added, and the mixtures were mixed with a Pasteur pipette, which was then broken and inserted in the vial in order to avoid any loss of material.
The vials were then sealed and stored at a temperature of 50° C. for two weeks.
After two weeks the vials were removed, examined for physical changes and were tested for impurities according to the HPLC method (RD 2000-1) as described in greater detail below.
75 ml of diluent was added and the samples were shaken for 30 min, and then diluted to volume with diluent.
5 ml of the above mentioned solution was transferred and diluted in a 10 ml volumetric flask. The diluent for all experiments was water:methanol mixture.
Part of each dry granulate was placed in a 34 ml Securitainer® (a regular secure medicine bottle made from high density polyethylene; available from Jaycare Ltd in the United Kingdom) and placed in incubator at 40° C./75% RH for a 6 month stability study. Next, separate samples containing 1 g of each dry granulate were mixed with 200 μl water (LOD of the blend 16.67%), closed in a glass vial and stored at 50° C. for a 2 week compatibility test.
Results of those compatibility and stability studies are summarized in table 4; a more detailed description of the same results is provided in table 5 below. Stability or compatibility criteria were defined as: maximum known impurity <0.5% (preferably comprising one or both of the Desfluoro (Desfl.) or lactone (Lact.) degradation forms); maximum unknown impurity <0.5%, preferably <0.3%; total impurities <1.5%.
One gram of each blend was mixed with 200 μl purified water (LOD of the blend was 16.67%), placed in a closed glass vial and placed for 2 weeks in an incubator at 50° C. for a compatibility test.

[1] = amorphous atorvastatin calcium, no excipient, 2 weeks, 16.7% LOD

Row | Desfluoro [1] [%] | Lactone [1] [%] | Max unknown impurity [1] [%] | Total Impurities [1] [%] | Compatibility (amorphous Atorvastatin Ca dry mixes) | Compatibility (crystalline form VI Atorvastatin Ca granulates) | SMILES
1 | 0.12 | 0.04 | 0.05 | 0.33 |  |  | CC(C)c1c(C(=O)Nc2ccccc2)c(-c2ccccc2)c(-c2ccc(F)cc2)n1CC[C@@H](O)C[C@@H](O)CC(=O)[O-].CC(C)c1c(C(=O)Nc2ccccc2)c(-c2ccccc2)c(-c2ccc(F)cc2)n1CC[C@@H](O)C[C@@H](O)CC(=O)[O-].[Ca+2] [Reference (no excipient added)]
2 |  |  |  |  | Stable | Stable | CC(C)c1c(C(=O)Nc2ccccc2)c(-c2ccccc2)c(-c2ccc(F)cc2)n1CC[C@@H](O)C[C@@H](O)CC(=O)[O-].CC(C)c1c(C(=O)Nc2ccccc2)c(-c2ccccc2)c(-c2ccc(F)cc2)n1CC[C@@H](O)C[C@@H](O)CC(=O)[O-].[Ca+2] [Vial 1]
